The record followed here is ChEMBL document CHEMBL1126955, “Substituted thiopyrano[2,3,4-c,d]indoles as potent, selective, and orally active inhibitors of 5-lipoxygenase. Synthesis and biological evaluation of L-691,816” (J Med Chem, 1993).

For data set [1], the target named is T1, Polyunsaturated fatty acid 5-lipoxygenase (Rattus norvegicus, UniProt P12527).
T1 sequence (P12527 whole entry): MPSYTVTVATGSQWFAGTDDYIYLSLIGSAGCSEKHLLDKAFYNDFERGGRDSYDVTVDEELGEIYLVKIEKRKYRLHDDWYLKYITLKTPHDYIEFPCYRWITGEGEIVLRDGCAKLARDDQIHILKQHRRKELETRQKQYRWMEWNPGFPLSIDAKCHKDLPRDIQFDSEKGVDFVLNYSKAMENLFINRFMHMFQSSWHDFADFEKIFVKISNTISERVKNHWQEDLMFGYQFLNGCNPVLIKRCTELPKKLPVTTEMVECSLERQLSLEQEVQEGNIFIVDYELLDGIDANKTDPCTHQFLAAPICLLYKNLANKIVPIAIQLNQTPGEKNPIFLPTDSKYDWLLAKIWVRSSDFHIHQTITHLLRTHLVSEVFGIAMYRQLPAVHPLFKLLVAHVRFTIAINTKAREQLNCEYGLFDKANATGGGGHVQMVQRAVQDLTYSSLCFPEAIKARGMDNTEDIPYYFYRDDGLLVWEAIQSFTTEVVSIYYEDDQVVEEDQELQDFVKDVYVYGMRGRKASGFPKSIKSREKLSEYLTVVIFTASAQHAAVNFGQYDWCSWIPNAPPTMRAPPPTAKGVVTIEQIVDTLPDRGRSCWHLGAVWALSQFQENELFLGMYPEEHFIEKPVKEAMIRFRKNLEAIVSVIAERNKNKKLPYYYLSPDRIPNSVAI
In words: In vitro test for inhibition of 5-lipoxygenase in cell-free preparations from rat PMN leukocytes.

The species entered for data set [2] is Homo sapiens. In words: Tested in vitro for the inhibition of LTB4 biosynthesis in [Ca(2+)]-ionophore-activated human polymorphonuclear leukocytes (Result of a single titration). The class given is functional.
For data set [3], the system named is Monkey. In words: Changes in airway resistance after administration of 0.3 mg/kg in squirrel monkey. The class given is functional.
Data set [4] relates to Monkey. In words: Changes in dynamic compliance after administration of 0.3 mg/kg in squirrel monkey (not significant). The format is functional.
The species entered for data set [5] is Rattus norvegicus. In words: Tested for antigen-induced dyspnea in hyperreactive rat model (2 hr pretreatment). The format is functional.
The target of data set [6] is T2, Arachidonate 12-lipoxygenase (Sus scrofa, UniProt P16469).
T2 sequence (P16469 whole entry): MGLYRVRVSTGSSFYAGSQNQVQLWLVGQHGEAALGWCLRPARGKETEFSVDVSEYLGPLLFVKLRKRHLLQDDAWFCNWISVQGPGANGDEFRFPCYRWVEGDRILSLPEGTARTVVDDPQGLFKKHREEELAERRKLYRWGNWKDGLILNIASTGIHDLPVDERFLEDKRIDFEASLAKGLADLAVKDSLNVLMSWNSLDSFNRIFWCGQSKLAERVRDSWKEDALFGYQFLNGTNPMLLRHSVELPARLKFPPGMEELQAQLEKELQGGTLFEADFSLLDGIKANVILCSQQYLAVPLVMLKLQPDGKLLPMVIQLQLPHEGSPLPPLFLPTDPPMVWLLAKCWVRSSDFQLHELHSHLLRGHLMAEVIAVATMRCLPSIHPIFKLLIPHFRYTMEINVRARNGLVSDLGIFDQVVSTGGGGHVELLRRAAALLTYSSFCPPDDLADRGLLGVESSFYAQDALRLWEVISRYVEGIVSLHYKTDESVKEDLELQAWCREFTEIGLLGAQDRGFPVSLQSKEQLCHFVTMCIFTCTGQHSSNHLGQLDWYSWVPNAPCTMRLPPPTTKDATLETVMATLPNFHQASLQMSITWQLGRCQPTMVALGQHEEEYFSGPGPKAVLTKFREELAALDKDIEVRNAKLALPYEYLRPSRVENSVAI
In words: Tested for inhibition against porcine 12-LO.

Data set [7] deals with T3, Polyunsaturated fatty acid 5-lipoxygenase (Homo sapiens, UniProt P09917).
T3 sequence (P09917 whole entry): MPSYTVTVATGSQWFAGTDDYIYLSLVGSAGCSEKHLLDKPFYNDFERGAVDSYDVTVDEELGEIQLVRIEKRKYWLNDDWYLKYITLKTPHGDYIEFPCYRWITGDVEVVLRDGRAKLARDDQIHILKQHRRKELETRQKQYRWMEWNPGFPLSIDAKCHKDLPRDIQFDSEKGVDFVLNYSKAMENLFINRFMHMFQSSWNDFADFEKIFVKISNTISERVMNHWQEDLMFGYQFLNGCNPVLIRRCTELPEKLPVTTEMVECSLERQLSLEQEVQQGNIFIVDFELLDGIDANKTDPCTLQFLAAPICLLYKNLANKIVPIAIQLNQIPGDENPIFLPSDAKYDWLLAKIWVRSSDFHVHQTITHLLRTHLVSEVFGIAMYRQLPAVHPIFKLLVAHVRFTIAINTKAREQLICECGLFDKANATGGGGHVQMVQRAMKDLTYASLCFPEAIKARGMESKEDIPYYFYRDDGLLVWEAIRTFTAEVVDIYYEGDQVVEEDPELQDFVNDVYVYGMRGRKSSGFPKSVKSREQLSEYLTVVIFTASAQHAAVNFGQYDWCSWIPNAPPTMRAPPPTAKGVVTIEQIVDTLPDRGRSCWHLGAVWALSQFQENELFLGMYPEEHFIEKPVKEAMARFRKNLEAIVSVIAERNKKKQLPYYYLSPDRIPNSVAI
In words: Tested for inhibition of 5-HPETE production by human 5-LO.

Data set [8] concerns the target T1, Polyunsaturated fatty acid 5-lipoxygenase. In words: Tested for inhibition of 5-HPETE production by rat 5-LO; value ranges from 16-36 nM.
The nature of data set [9]: Peak concentration in rat plasma was determined. The class given is ADME, organism-based.
The nature of data set [10]: Bioavailability in rat (dose 20 mg/kg p.o. in 1% methocel, and 5 mg/kg i.v. in PEG400). The class given is ADME, organism-based. The conditions noted are these: in vivo, po.
The nature of data set [11]: Rate of enzyme inactivation for the compound was determined.
The target in data set [12] is T3, Polyunsaturated fatty acid 5-lipoxygenase. In words: In vitro inhibition of LTB4 biosynthesis in [Ca(2+)]-ionophore-activated human polymorphonuclear leukocytes. The class given is functional.
The test system of data set [13] is Monkey. In words: Changes in airway resistance after administration of 1 mg/kg in squirrel monkey. The format is functional.
Data set [14] deals with Monkey. In words: Changes in dynamic compliance after administration of 0.3 mg/kg in squirrel monkey. The class given is functional.
The subject of data set [15] is Monkey. In words: Changes in dynamic compliance after administration of 1 mg/kg in squirrel monkey. The format is functional.
For data set [16], the target named is Prostaglandin G/H synthase (cyclooxygenase) (Ovis aries) (UniProt P05979+P79208). In words: Tested for inhibition against ram seminal vesicle Prostaglandin G/H synthase at a concentration of 10 uM. The class given is tissue-based.
The species entered for data set [17] is Homo sapiens. In words: Tested for inhibition of leukotriene B4 synthesis in human PMN leukocytes at 5*10e5 cells/mL concentration. The format is functional, cell-based.
The species entered for data set [18] is Rattus norvegicus. In words: Tested for antigen-induced dyspnea in hyperreactive rat model (2 hours pretreatment). The format is functional.
The species entered for data set [19] is Rattus norvegicus. In words: Tested for inhibition of leukotriene B4 in rat pleurisy model (8 hours pretreatment). The class given is functional.
The species named for data set [20] is Rattus norvegicus. In words: Tested for ex-vivo inhibition of leukotriene B4 biosynthesis in rat whole blood. The format is functional, organism-based.
The species entered for data set [21] is Rattus norvegicus. In words: Tested for percent inhibition of dyspnea duration in hyperreactive rat model. The format is functional.
Data set [22] is described as follows: Maximum time taken for compound to reach peak concentration in rat plasma. The class given is ADME, organism-based.
Data set [23] relates to Rattus norvegicus. In words: Tested for percent inhibition of dyspnea duration in hyperreactive rat model after peroral administration of 5 mg/kg. The format is functional. Particulars: route oral.
The nature of data set [24]: Maximum time taken for compound to reach peak concentration in rat plasma; value ranges from 1-2 hrs. The format is ADME, organism-based.

As usually defined, the IC50 is the concentration at which inhibition is half-maximal. The ED50 is the dose that gives a 50% effect, or the effect in half of the subjects. The term Cmax denotes the peak of the concentration-time curve. What is called bioavailability is the share of a dose that reaches the circulation, judged against a reference dose that is usually intravenous. As a reminder, the kinact is the rate constant of inactivation at saturating inhibitor. One may read the inhibition as the share of the control response that was lost under treatment. By Inhibition is commonly meant the share of the control response that was lost under treatment. In general, Tmax refers to the time at which the peak concentration occurs. The term inhibition in vivo denotes the relative decrease from the control value, in per cent.

Sequence of Prostaglandin G/H synthase (cyclooxygenase) (Ovis aries) (P05979 whole entry, looked up): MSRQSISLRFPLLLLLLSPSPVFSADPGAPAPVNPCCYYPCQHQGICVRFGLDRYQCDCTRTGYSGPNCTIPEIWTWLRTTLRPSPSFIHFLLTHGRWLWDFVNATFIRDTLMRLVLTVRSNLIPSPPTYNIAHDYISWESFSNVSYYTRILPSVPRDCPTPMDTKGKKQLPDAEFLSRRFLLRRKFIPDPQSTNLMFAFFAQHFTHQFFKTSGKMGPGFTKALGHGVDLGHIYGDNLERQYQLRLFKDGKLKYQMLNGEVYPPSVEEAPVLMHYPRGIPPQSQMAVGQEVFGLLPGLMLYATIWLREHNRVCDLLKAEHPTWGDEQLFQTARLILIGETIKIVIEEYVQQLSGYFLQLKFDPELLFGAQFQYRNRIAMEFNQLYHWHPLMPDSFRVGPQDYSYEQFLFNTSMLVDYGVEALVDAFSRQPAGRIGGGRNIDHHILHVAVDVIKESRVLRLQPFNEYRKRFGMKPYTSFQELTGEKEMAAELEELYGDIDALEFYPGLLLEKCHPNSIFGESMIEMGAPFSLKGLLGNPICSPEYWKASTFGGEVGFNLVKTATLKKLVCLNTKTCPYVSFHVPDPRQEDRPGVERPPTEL
Sequence of Prostaglandin G/H synthase (cyclooxygenase) (Ovis aries) (P79208 whole entry, looked up): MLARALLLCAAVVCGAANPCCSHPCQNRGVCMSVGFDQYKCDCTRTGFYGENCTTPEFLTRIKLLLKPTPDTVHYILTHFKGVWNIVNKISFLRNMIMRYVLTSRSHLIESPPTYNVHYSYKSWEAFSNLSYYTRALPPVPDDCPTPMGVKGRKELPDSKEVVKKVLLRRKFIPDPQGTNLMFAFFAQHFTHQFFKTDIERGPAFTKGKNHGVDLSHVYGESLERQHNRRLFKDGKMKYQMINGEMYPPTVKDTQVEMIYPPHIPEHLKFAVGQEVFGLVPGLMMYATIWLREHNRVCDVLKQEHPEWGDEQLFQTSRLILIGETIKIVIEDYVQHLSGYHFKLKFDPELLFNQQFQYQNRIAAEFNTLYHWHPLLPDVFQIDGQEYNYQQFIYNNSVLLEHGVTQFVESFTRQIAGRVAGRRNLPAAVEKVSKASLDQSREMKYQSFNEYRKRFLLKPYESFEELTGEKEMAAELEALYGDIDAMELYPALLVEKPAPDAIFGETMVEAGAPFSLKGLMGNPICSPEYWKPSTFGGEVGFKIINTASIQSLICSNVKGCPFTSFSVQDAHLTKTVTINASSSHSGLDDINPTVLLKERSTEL

With `CC1Cc2c(OCc3ccc(C(=O)O)cn3)ccc3c2c(c(CC(C)(C)C(=O)O)n3Cc2ccc(Cl)cc2)S1` (configuration not stated), the IC50 in data set [1] and in data set [2] was more than 2000 nM in each case.
Compound `CC(C)(C)Sc1c(CC(C)(C)C(=O)O)n(Cc2ccc(Cl)cc2)c2ccc(OCc3ccc4ccccc4n3)cc12` [QUIFLAPON] came in with an RL in data set [3] of 44%. Besides, in data set [4], the Cdyn came out at 46%. The ED50 in data set [5] amounted to 0.16 mg/kg.
As for `CC1Cc2c(OCc3ccc(-c4ccccc4)cn3)ccc3c2c(c(CC(C)(C)Cc2nnn[nH]2)n3Cc2ccc(Cl)cc2)S1` (configuration not stated), the half-maximal inhibitory concentration (IC50) in data set [6] stood at 2800 nM; in data set [7], 75 nM; in data set [8] it was 16 nM; in [1], 17 nM; in data set [12], 8 nM; in [17], 10 nM. The same compound registered a concentration for half-maximal inhibition (IC50) in data set [20] of 1500 nM. The highest level in data set [9] (Cmax) was 10 µM. Besides, the bioavailability in data set [10] turned out to be 40%. For the same compound, the kinact in data set [11] is 0.009 s⁻¹. The RL in data set [3] is on record as 17.5%; in data set [13] it was 12.6%. Further, the Cdyn in [14] was -11.2%; in [15], -9.2%. In addition, the inhibition in data set [16] worked out at 59%. Moreover, the results for the 50% effective dose (ED50) in data set [18] and in data set [19] were 0.1 mg/kg and 1.9 mg/kg, respectively. The same compound had an Inhibition in data set [21] of 70%. In data set [22], the Tmax came to 6 h.
For `CC1Cc2c(OCc3ccc(-c4ccccc4)cn3)ccc3c2c(c(CC(C)(C)CC(=O)O)n3Cc2ccc(Cl)cc2)S1` (configuration not stated), the figures for the half-maximal inhibitory concentration (IC50) in [1] and in data set [12] were 20 nM and 12 nM, respectively. Moreover, the maximum concentration (Cmax) in [9] came out at 4 µM. The compound also gave a bioavailability in [10] of 27%. Further, the inhibition in vivo at 5 mg/kg in data set [23] came out at 54%. Further, in data set [22], the time to peak (Tmax) was 2 h.
As to `CC1Cc2c(OCc3ccc(-c4ccccc4)cn3)ccc3c2c(c(CC(C)(C)CC(=O)NS(C)(=O)=O)n3Cc2ccc(Cl)cc2)S1` (configuration not stated), the IC50 in data set [1] came to 36 nM; in data set [12], 11 nM. The compound also registered a Cmax in [9] of 12 µM. Besides, the bioavailability in [10] was 45%. This compound also yielded an inhibition in vivo at 5 mg/kg in data set [23] of 44%. In addition, the time to peak (Tmax) in [22] was found to be 4 h.
In the case of `CC1Cc2c(CCc3ccc(-c4ccccc4)cn3)ccc3c2c(c(CC(C)(C)Cc2nnn[nH]2)n3Cc2ccc(Cl)cc2)S1` (configuration not stated), the values for the IC50 in [1] and in [12] were 16 nM and 3 nM, respectively. This compound also displayed a Cmax in data set [9] of 8 µM. In data set [10], this compound had a bioavailability of 36%. Also, in data set [24], the Tmax is 1 h. Also, the Inhibition in [21] is reported as 37%.
